This series can be described thus: in vitro. The note with it: human, hela cells, % viability.

Each structure is given as a SMILES string.

Regarding `COc1cc(OC)nc(C(NC(=O)C2CCN(Cc3cn(C)c4ccccc34)CC2)c2ccc(F)cc2)n1` (centres unmarked) [CBK148185], the viability (as a rule, a read-out of living cells in per cent, often relative to untreated cells) at 28.5 h, 10 µM came out at 90.7%.
For the compound `Cc1cc(C)n(CCCC(=O)N2C[C@H]3CCc4c[nH]nc4[C@H]3C2)n1` [CBK284573], the viability at 28.5 h, 10 µM was determined as 101%.
The same measure for `O=C(c1ccc(F)cc1)C1CCN(C/C=C/c2ccccc2)CC1` [CBK149124]: 90.4%; for `O=C(CSc1nnc(-c2cccnc2)n1-c1ccc(Br)cc1)Nc1ccc2c(c1)OCCO2` [CBK266133]: 96.4%; for `Cc1cnc(CNC(=O)N2CCc3ccccc3C2)cn1` [CBK155166]: 97.3%.
With `CCc1nc(CN2CCOC(c3ccc(F)cc3)C2)cs1` (centres unmarked) [CBK305090], the viability at 28.5 h, 10 µM is 89.7%.
The same measure for `Cc1ccc(OC2(C(=O)N3CCCC3C(F)(F)F)CCNCC2)cc1` (centres unmarked) [CBK307226]: 82.5%.
The same measure for `CCCn1c(CN2CCN(CCO)CC2)nc2ccccc21` [CBK269363]: 110%; for `CCn1c(CN2CCCC2c2nc(N(C)C)ncc2-c2ccccc2)nc2ccccc21` (centres unmarked) [CBK286070]: 83.4%; for `CC(C)N1CCN(c2nccnc2Cl)CC1` [CBK028901]: 101%.
Regarding `O=C(CCn1cnc2ccccc2c1=O)Nc1ccc(S(=O)(=O)N2CCCC2)cc1` [CBK267642], the viability at 28.5 h, 10 µM was determined as 93%.
The figure for `N#Cc1sc2c(c1NC(=O)C(F)(F)F)CCCC2` [CBK019233] is 92.1%.
The same measure for `CC(=O)N1CCc2c(sc(NC(=O)c3ccc(N(C)C)cc3)c2C#N)C1` [CBK304333]: 94.7%.
With `CC(C)(C)NC(=O)[C@@H]1CNC[C@]12Cc1ccccc1C(=O)N2` [CBK285294], the viability at 28.5 h, 10 µM turned out to be 103%.
The figure for `Cc1ccc(S(=O)(=O)Nc2nc3ccccc3nc2Nc2ccc(C(=O)O)cc2)cc1C` [CBK300516] is 91.5%; for `CN(C)S(=O)(=O)N(CC(=O)NCc1ccco1)c1ccccc1` [CBK267971] it is 97.3%; for `CSc1ccc(-c2nccnc2OCCN(C(C)C)C(C)C)cc1` [CBK106805] it is 107%.
The same measure for `CCc1nc2ccc(C(=O)NCC3CCCCC3)cn2c1N(C)Cc1ccc(OC)cc1` [CBK145568]: 91.1%; for `COC(=O)c1sc2cc(C(F)(F)F)cnc2c1-c1cccnc1` [CBK089885]: 112%.
The figure for `CCn1cc(C2CN(S(=O)(=O)c3ccc(F)c(C)c3)CCO2)cn1` (centres unmarked) [CBK305419] is 91.3%; for `O=C1/C(=C/c2ccccc2)S/C(=N/N=C/c2ccccc2)N1c1ccc(O)cc1` [CBK262803] it is 89.6%.
Consider `O=C(CCCc1ccccc1)Nc1scc2c(=O)oc3ccccc3c12` [CBK265435], for which the viability at 28.5 h, 10 µM was 90.1%.
The figure for `CCN(C)S(=O)(=O)c1ccc(Cl)c(Cl)c1` [CBK045392] is 113%; for `CC12CN3CC(C)(CN(C1)C3c1cc(Br)ccc1O)C2O` (centres unmarked) [CBK262664] it is 112%; for `O=C(NCc1ccccc1OC1CCNC1)C1CCCO1` (centres unmarked) [CBK024503T] it is 96.9%.
As to `Cc1cc(C(F)(F)F)nn1CCCNC(=O)c1cc(-c2ccccc2)nc2ccccc12` [CBK267755], the viability at 28.5 h, 10 µM was determined as 85%.
The figure for `Cc1ccc2c(N)c(C(=O)c3ccccc3)sc2n1` [CBK115347] is 88.1%.
Regarding `C=Cn1cc(CN2C3CCC2CC(O)(c2ccc(F)cc2)C3)c(C)n1` (centres unmarked) [CBK282742], the viability at 28.5 h, 10 µM turned out to be 80.6%.
The figure for `C[C@@H]1CN(C(=O)c2ccc3[nH]cnc3c2)C[C@H](C)O1` [CBK200120] is 106%; for `Cc1ccc(NC(=O)c2cc(C(=O)Nc3ccc(C)c(C)c3)cc(N3C(=O)c4ccccc4C3=O)c2)cc1C` [CBK261328] it is 93.8%.
Take `O=C1CC(=O)N(Cc2ccc(F)cc2)C(=O)N1` [CBK291156]: the viability at 28.5 h, 10 µM worked out at 95.2%.
The figure for `COc1cccc(-c2cc(C(=O)N3CCC(C)CC3)n[nH]2)c1` [CBK288109] is 94.3%; for `O=C1OC[C@@H](c2ccccc2)N1C(=O)[C@@H]1CN(Cc2ccccc2)C[C@H]1c1cc2ccccc2o1` [CBK022599C] it is 111%.
Take `CS(=O)(=O)Nc1ccc2cc(-c3ccc(Oc4ccccc4)cc3)cnc2n1` [CBK085674]: the viability at 28.5 h, 10 µM was 98%.
The figure for `CN(C)C(=O)CO[C@@H]1CO[C@H]2[C@@H]1OC[C@@H]2Nc1nccc(-c2cccs2)n1` [CBK289515] is 109%.
The figure for `CN1CCN(C(=O)c2ccc(-c3cnc4[nH]c(=O)n(CCN5CCOCC5)c4n3)cc2)CC1` [CBK064800] is 114%.
The figure for `COc1cc(NC(=O)c2cnc(-c3ccc(Cl)cc3)c(-c3ccco3)c2)cc(C(F)(F)F)c1` [CBK037570] is 91.4%; for `CC(C)(CC(=O)O)CC(=O)Nc1ccc(N2CCCC2=O)cc1` [CBK299787] it is 109%.
On to `CC(=O)N1C[C@H]2CCCN(S(=O)(=O)c3ccc(F)cc3)[C@H]2C1` [CBK285283], for which the viability at 28.5 h, 10 µM is 88.8%.
The figure for `C=C(C)Cn1c(SCC(C)C)nnc1-c1cccs1` [CBK200086] is 96.5%; for `CC(C)(C)c1cc(C(=O)Nc2ccccn2)n(Cc2ccc(Cl)cc2Cl)n1` [CBK107361] it is 89.6%.
The figure for `COc1ccc(C(C)c2cc3c(cc2OC)OCO3)c(F)c1` (centres unmarked) [CBK200112] is 53.3%; for `CC(=O)Nc1cccc(-c2cncc(N[C@H](CO)C(C)C)n2)c1` [CBK065475] it is 98.2%; for `NC(=O)CN1CC2(CCN(CC3COc4ccccc4O3)CC2)c2ccccc21` (centres unmarked) [CBK143960] it is 89.4%.
The figure for `O=C(O)c1ccc(NC(=O)c2cn(-c3ccccc3)nc2-c2ccccc2)cc1` [CBK296120] is 94.4%.
In the case of `Nc1ncc2ncn([C@@H]3O[C@H](CO)[C@H](O)C3O)c2n1` (some centres unmarked) [CBK201318], the viability at 28.5 h, 10 µM came out at 92.8%.
The same measure for `COc1cc2c(cc1NC(=O)C(C)Oc1ccccc1)oc1ccccc12` (centres unmarked) [CBK264061]: 91.3%.
The same measure for `CCOC(=O)c1sc(NS(=O)(=O)c2cccc3cccnc23)nc1C` [CBK047443]: 91.6%; for `O=S(=O)(c1ccc2ccccc2c1)N1CCN(CCCOc2ccccc2Cl)CC1` [CBK267018]: 106%; for `COc1ccc(-c2nc3ccccc3s2)cc1NC(=O)c1ccc(OCC(C)C)cc1` [CBK268878]: 94.7%.
The same measure for `CCc1onc(C)c1C(=O)N1CCN(C2CCNC2)CC1` (centres unmarked) [CBK304258]: 96%.
Take `COc1ccc(CNC(=O)N(C)C2CCN(C)C2)cc1OC` (centres unmarked) [CBK156020]: the viability at 28.5 h, 10 µM was determined as 97.6%.
Consider `CC(O)CNCc1ccc(OCC(=O)NC(C)(C)C)cc1` (centres unmarked) [CBK270232C], for which the viability at 28.5 h, 10 µM was 87.1%.
The same measure for `CCc1cc(Br)ccc1S(=O)(=O)NCCOc1ccccc1` [CBK044882]: 88.4%; for `CS(=O)(=O)N1CCc2cc(S(=O)(=O)NCCc3c[nH]c4ccccc34)ccc21` [CBK268487]: 101%; for `c1ccc2c(c1)OCC(COc1nccc(N3CCCN(Cc4ccc5c(c4)OCO5)CC3)n1)O2` (centres unmarked) [CBK083235T]: 85.7%.

The values are drawn from paper PMC12040169 (PLOS Biology, 2025).
